Source: US10307427B2, “Apoptosis signal-regulating kinase inhibitors” (Gilead Sciences, Inc., priority 2012, dated 2019)

Test system: CXCL1 in human whole blood
Test: Human whole blood CXCL1 assay (Auranofin stimulation)
Assay type: cell-based
Conditions: 5 μM Auranofin, 24 hours, CXCL1 quantified, average of donors, read-out: WB EC50 nM (n = 4)
Procedure: Human Whole Blood CXCL1 Assay
Human blood collected in sodium heparin glass vacutainer tubes (BD Biosciences #366480) was obtained from Stanford Blood Center (Palo Alto, Ca). Red blood cell Ammonium-Chloride-Potassium (ACK) lysis buffer was obtained from Invitrogen (A10492-01) Phosphate buffered saline (PBS, 21-031-CV) and RPMI640 media (10-040-CV) were purchased from Cellgro. 50 ml conical tubes were from BD Biosciences (352070). Multiscreen Filter plates (MSBVS 1210) used along with vacuum manifold for 96-well plate (MAVM0960R) were purchased from EMD Millipore Inc. Transfer pipettes (13-711-20) and hemocytometer (0267110) were purchased from Thermo Fisher Scientific. An Allegra X15R from Beckmann Coulter was used for all the centrifugation steps in the isolation of PBMCs.
ASK1 inhibitors and Auranofin (Enzo Life Sciences Inc. BML-EI206-0100) were dissolved in dimethyl sulfoxide (DMSO, Sigma Aldrich cat#472301) at a concentration of 10 mM and 100 mM, respectively. […] CXCL1 protein was quantified with an ELISA assay from Millipore.
A 10 mM ASK1 inhibitor DMSO stock was diluted in saline to create a 100 μM (10×) working solution. […] 50 μl of the resulting supernatant from each well was transferred to a new 96 well assay plate and the amount of CXCL1 was quantified by a Procarta immunoassay following the manufacturer's instructions. […]

| SMILES | EC50 [nM] |
| --- | --- |
| C[C@H](n1cnnc1-c1nc(NC(=O)c2cc(-n3cnc(C4CC4)c3)c(N3CCOCC3)cn2)cs1)C(F)(F)F [Example 3, (S)-4-(4-cyclopropyl-1H-imidazol-1-yl)-5-morpholino-N-(2-(4-(1,1,1-trifluoropropan-2-yl)-4H-1,2,4-triazol-3-yl)thiazol-4-yl)picolinamide] | 202 |
| O=C(Nc1csc(-c2nncn2C2CC2)n1)c1cc(-n2cnc(C3CC3)c2)c(N2CCOCC2)cn1 [Example 1, 4-(4-cyclopropyl-1H-imidazol-1-yl)-N-(2-(4-cyclopropyl-4H-1,2,4-triazol-3-yl)thiazol-4-yl)-5-morpholinopicolinamide] | 243 |
